Test results reported in PubChem BioAssay (NCI).
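Dose response: 5 concentrations. Exposure: 48 h. Format: 96-well plates. Endpoint: linear interpolation; highest concentration if not reached. TGI denotes the concentration required for complete inhibition of growth.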

Key:
Assay in all cases: NCI tumour cell line growth inhibition, 48 h
786-0 renal = system: 786-0 renal
A549 NSCLC = system: A549 NSCLC
ACHN renal = system: ACHN renal
BT-549 breast = system: BT-549 breast
CAKI-1 renal = system: CAKI-1 renal
CCRF-CEM leukemia = system: CCRF-CEM leukemia
COLO 205 colon = system: COLO 205 colon
DU-145 prostate = system: DU-145 prostate
EKVX NSCLC = system: EKVX NSCLC
HCC-2998 colon = system: HCC-2998 colon
HCT-116 colon = system: HCT-116 colon
HCT-15 colon = system: HCT-15 colon
HL-60(TB) leukemia = system: HL-60(TB) leukemia
HOP-62 NSCLC = system: HOP-62 NSCLC
HOP-92 NSCLC = system: HOP-92 NSCLC
HS 578T breast = system: HS 578T breast
HT29 colon = system: HT29 colon
IGROV1 ovarian = system: IGROV1 ovarian
K-562 leukemia = system: K-562 leukemia
KM12 colon = system: KM12 colon
LOX IMVI melanoma = system: LOX IMVI melanoma
M14 melanoma = system: M14 melanoma
MCF7 breast = system: MCF7 breast
MDA-MB-231 breast = system: MDA-MB-231 breast
MDA-MB-435 = system: MDA-MB-435
MDA-N = system: MDA-N
MOLT-4 leukemia = system: MOLT-4 leukemia
NCI-H226 lung = system: NCI-H226 lung
NCI-H23 lung = system: NCI-H23 lung
NCI-H460 lung = system: NCI-H460 lung
NCI-H522 lung = system: NCI-H522 lung
NCI/ADR-RES ovarian = system: NCI/ADR-RES ovarian
OVCAR-3 ovarian = system: OVCAR-3 ovarian
OVCAR-4 ovarian = system: OVCAR-4 ovarian
OVCAR-5 ovarian = system: OVCAR-5 ovarian
OVCAR-8 ovarian = system: OVCAR-8 ovarian
PC-3 prostate = system: PC-3 prostate
RPMI-8226 leukemia = system: RPMI-8226 leukemia
RXF 393 renal = system: RXF 393 renal
SF-268 CNS = system: SF-268 CNS
SF-295 CNS = system: SF-295 CNS
SF-539 CNS = system: SF-539 CNS
SK-MEL-2 melanoma = system: SK-MEL-2 melanoma
SK-MEL-28 melanoma = system: SK-MEL-28 melanoma
SK-MEL-5 melanoma = system: SK-MEL-5 melanoma
SK-OV-3 ovarian = system: SK-OV-3 ovarian
SN12C renal = system: SN12C renal
SNB-19 CNS = system: SNB-19 CNS
SNB-75 CNS = system: SNB-75 CNS
SR leukemia = system: SR leukemia
SW-620 colon = system: SW-620 colon
T-47D breast = system: T-47D breast
TK-10 renal = system: TK-10 renal
U251 CNS = system: U251 CNS
UACC-257 melanoma = system: UACC-257 melanoma
UACC-62 melanoma = system: UACC-62 melanoma
UO-31 renal = system: UO-31 renal
MALME-3M melanoma = system: MALME-3M melanoma

Measured: TGI

Cc1cc(O)c(C=NC(=S)C(N)=S)c(=O)o1
> 30.1 µM: MOLT-4 leukemia
not listed: MALME-3M melanoma
> 100 µM: all other assays above

CC(=O)OCC1OC(NC(=S)CCSc2nc3ccccc3c(=O)n2-c2ccccc2)C(OC(C)=O)C(OC(C)=O)C1OC(C)=O (stereo not drawn)
88.1 µM: HL-60(TB) leukemia
34 µM: SF-539 CNS
98.1 µM: HOP-92 NSCLC
76.3 µM: SK-MEL-2 melanoma
60.7 µM: SNB-75 CNS
58.2 µM: RXF 393 renal
25.1 µM: IGROV1 ovarian
not listed: OVCAR-4 ovarian | TK-10 renal
> 100 µM: all other assays above
